The text below walks through data of BindingDB's records for doi:10.1021/jm00109a029 (Research Biochemicals, 1991).

As usually defined, the IC50 is the concentration that inhibits the measured activity by half. Lower therefore signals greater potency.

This assay is described as follows: Compound was evaluated for inhibition of specifically bound [3H]- cocaine (2.7 nM) against Dopamine transporter in cynomolgus monkeys.

In turn, `COC(=O)C1C2CCC(C[C@@H]1c1ccc(F)cc1)N2` (stereo partly specified) showed an IC50 of 36 nM.
